Assay results published in patent US20060073121A1, “Spray formulation for pungency enhancement in Capsicum” (priority 2004, published 2006).

System: Capsicum frutescens and Capsicum annuum
Assay: Comparative number of folds enhancement of phenyl propanoid intermediates and capsaicinoids by optimized elicitors
Assay type: in vivo
Protocol: (§1) The flowers of C. frutescens were sprayed with water, which was taken as control. The fruits of C. frutescens which received different treatments were harvested on 25, 30, 35 and 40 days after anthesis and extracted with 1:2 (w/v) of acetonitrile followed by in-vacuo evaporation and resuspension with 1 ml methanol. The extracted samples were centrifuged at 4000 rpm for 10 minutes. The samples were subjected to High Performance Liquid Chromatography for quantification of phenyl proponoid intermediates and major Capsaicinoids. The mobile phase of linear gradient of 0-100 % acetonitrile in water with pH 3.0 for 35 minutes and 100% was maintained for 2 minutes at 35th minute. The detection was at 236 nm and flow rate was maintained at 1 ml/min. C-18 column of 250×4.6 mm and 5-μm diameter was used. The reagent used was of HPLC grade. The intermediates of phenyl proponoid pathway (Phenylalanine, Cinnamic acid, Coumaric acid, Caffeic acid, Ferulic acid and Vanillylamine) and two major Capsaicinoids (Capsaicin and Dihydrdcapsaicin) were purchased from Sigma Co. A standard stock solution of 1 mg/ml was prepared in methanol. 5 and 10 μl of standards and samples was injected to HPLC for three times and the mean value was calculated. Standard deviation of samples was calculated according to Tukey's method.
as §1, with “C. annuum var Arka Lohit” for “C. frutescens”, “of Acetonitrile” for “of acetonitrile”, “of 0-100%” for “of 0-100 %”, “and Dihydrocapsaicin)” for “and Dihydrdcapsaicin)”

[1] = 35 days after anthesis, optimized concentration: biotic 0.5-1% w/v, abiotic 2.5 μM

How did the “number of folds enhancement of Caffeic Acid” value [1] turn out when CC/C=C\CC1C(=O)CCC1CC(=O)OC (stereo not shown) [Methyl Jasmonate] was run?
Its value is 1.63-3.79 folds.

And the “number of folds enhancement of Capsaicin” value [1]?
Its value is 1.65-1.88 folds.

What about the “number of folds enhancement of Cinnamic Acid” value [1] of the same compound?
Its value is 1.42-3.79 folds.

And the “number of folds enhancement of Coumaric Acid” value [1]?
The value was 1.25-3.51 folds.

What about the “number of folds enhancement of Dihydrocapsaicin” value [1] of the same compound?
The value was 1.41-1.68 folds.

And the “number of folds enhancement of Ferulic Acid” value [1]?
Its value is 1.59-2.43 folds.

What about the “number of folds enhancement of Phenylalanine” value [1] of the same compound?
The value was 1.36-1.52 folds.

And the “number of folds enhancement of Vanillylamine” value [1]?
The value was 1.68-1.77 folds.

How did the “number of folds enhancement of Caffeic Acid” value (in vivo) turn out when O=C([O-])c1ccccc1O.[Na+] [Salicylic Acid sodium salt, Salicylic acid sodium salt] was run?
Its value is 1.45-1.75 folds.

What about the “number of folds enhancement of Capsaicin” value (in vivo) of the same compound?
Its value is 1.26-1.58 folds.

And the “number of folds enhancement of Cinnamic Acid” value (in vivo)?
Its value is 1.36-2.50 folds.

What about the “number of folds enhancement of Coumaric Acid” value (in vivo) of the same compound?
The value was 1.28-1.67 folds.

What about the “number of folds enhancement of Dihydrocapsaicin” value (in vivo) of the same compound?
The value was 1.11-1.32 folds.

What about the “number of folds enhancement of Ferulic Acid” value (in vivo) of the same compound?
The value was 1.11-1.28 folds.

What about the “number of folds enhancement of Phenylalanine” value (in vivo) of the same compound?
The value was 1.02-1.44 folds.

What about the “number of folds enhancement of Vanillylamine” value (in vivo) of the same compound?
Its value is 1.26-1.28 folds.
